The species named for data set [1] is Mus musculus. The experiment in a line: Neurotoxicity in Kunming mouse assessed as motor impairment by measuring reduction in time spent on rotarod after 0.5 hrs by rotarod test. In kind it is toxicity, organism-based. The following applies: in vivo. A general note: In the rotarod test animals must keep their balance on a rotating rod.
The subject of data set [2] is Mus musculus. Put plainly: Anticonvulsant activity in ip dosed Kunming mouse assessed as minimum dose required to protect maximal electroshock-induced seizures in mouse measured after 0.5 hrs. To be noted: read-out: MED. The data set is classed as functional.
Data set [3] relates to Mus musculus. Put plainly: Anticonvulsant activity in Kunming mouse assessed as protection against subcutaneously injected metrazol-induced seizures at 300 mg/kg, ip after 4 hrs. In kind it is functional, organism-based.
Data set [4] has as its system Mus musculus. The experiment in a line: Anticonvulsant activity in Kunming mouse assessed as protection against subcutaneously injected metrazol-induced seizures at 300 mg/kg, ip measured after 0.5 hrs. In kind it is functional, organism-based.
The subject of data set [5] is Mus musculus. Put plainly: Anticonvulsant activity in Kunming mouse assessed as protection against maximal electroshock-induced seizures in mouse at 300 mg/kg, ip measured after 4 hrs. The data set is classed as functional, organism-based. A general note: The maximal electroshock test induces tonic seizures with an electrical stimulus.
Data set [6] is filed under the species Mus musculus. Put plainly: Neurotoxicity in Kunming mouse assessed as motor impairment by measuring reduction in time spent on rotarod after 4 hrs by rotarod test. To be noted: in vivo. In kind it is toxicity, organism-based.
In data set [7] the test system is Mus musculus. The experiment in a line: Anticonvulsant activity in ip dosed Kunming mouse assessed as protection against subcutaneously injected metrazol-induced seizures after 0.5 hrs. In kind it is functional. The following applies: read-out: MED.
The subject of data set [8] is Mus musculus. Put plainly: Anticonvulsant activity in Kunming mouse assessed as protection against maximal electroshock-induced seizures in mouse at 300 mg/kg, ip measured after 0.5 hrs. In kind it is functional, organism-based.
Data set [9] relates to Mus musculus. Put plainly: Anticonvulsant activity in ip dosed Kunming mouse assessed as minimum dose required to protect maximal electroshock-induced seizures in mouse measured after 4 hrs. To be noted: read-out: MED. In kind it is functional.
Data set [10] concerns Mus musculus. Put plainly: Anticonvulsant activity in ip dosed Kunming mouse assessed as minimum dose required to protect maximal electroshock-induced seizures in mouse by measuring time to peak effect. The data set is classed as functional.
Data set [11] concerns Mus musculus. The experiment in a line: Anticonvulsant activity in ip dosed Kunming mouse assessed as protection against maximal electroshock-induced seizures. In kind it is functional.
Data set [12] can be described thus: Neurotoxicity in ip dosed Kunming mouse assessed as motor impairment by measuring reduction in time spent on rotarod. In kind it is toxicity, organism-based. To be noted: in vivo.
A short description of data set [13]: Protection index, ratio of TD50 for neurotoxicity by motor impairment in Kunming mouse to ED50 for protection against maximal electroshock-induced seizures in ip dosed Kunming mouse. The following applies: in vivo, read-out: Ratio TD50/ED50. In kind it is toxicity, organism-based.
The target of the next data set is Nav1.1 (Homo sapiens, UniProt P35498). Put plainly: Inhibition of human Nav1.1 expressed in CHO-K1 cells assessed as state-dependent block at 10 uM at holding potential of -120 mV incubated for 30 mins prior to testing measured every 20 seconds by whole-cell patch clamp method. The data set is classed as cell-based. To be noted: CHO-K1 cells expressing human Nav1.1.

For data set [14], the target named is Sodium channel protein type 1 subunit alpha (Homo sapiens) (UniProt P35498). Put plainly: Inhibition of human Nav1.1 expressed in CHO-K1 cells assessed as use-dependent block at 10 uM at holding potential of -120 mV incubated for 30 mins prior to testing measured every 20 seconds by whole-cell patch clamp method. In kind it is cell-based. (In general: The patch-clamp technique gives a direct electrical read-out from membranes.)

Usually ED50 stands for the dose at which the effect has come halfway, by size or by number of responders. By TD50 is commonly meant the dose at which the toxic effect under study appears in half of the subjects. As a reminder, the inhibition is the percentage by which the read-out fell short of the control.

Each structure is given as a SMILES string. Active and inactive are the calls of the source. The calls are words filed in the database; no cut-off is given here.

Consider `O=C1/C(=C/c2ccc3c(c2)OCO3)CCN1Cc1ccc(F)cc1`, for which the MLD in the data set filed under Mus musculus [1] and in the data set filed under Mus musculus [6] was 300 mg/kg in each case. In addition, the minimal effective dose with Mus musculus [2] is 30 mg/kg. Moreover, the result in the data set with Mus musculus [3], in the data set on Mus musculus [4] and with Mus musculus [5] was inactive.

For the compound `O=C1/C(=C/c2ccc3c(c2)OCO3)CCN1Cc1ccccc1Cl`, the MLD in the data set filed under Mus musculus [1] and in the data set listed under Mus musculus [6] was 300 mg/kg throughout. In the data set on Mus musculus [7], the minimal effective dose was found to be 100 mg/kg. The result in the data set on Mus musculus [3], in the data set on Mus musculus [8] and in the data set on Mus musculus [5] was inactive.

In the case of `O=C1/C(=C/c2ccc3c(c2)OCO3)CCN1Cc1cccc(F)c1`, the MLD in the data set filed under Mus musculus [1] and in the data set filed under Mus musculus [6] was 300 mg/kg each time. In addition, the minimal effective dose with Mus musculus [9] turned out to be 30 mg/kg. Moreover, the outcome with Mus musculus [3], with Mus musculus [8] and in the data set with Mus musculus [4] was inactive.

In the case of `O=C1/C(=C/c2ccc3c(c2)OCO3)CCN1Cc1c(F)cccc1F`, the MLD in the data set filed under Mus musculus [1] and in the data set filed under Mus musculus [6] was 300 mg/kg in each case. Moreover, the minimal effective dose with Mus musculus [2] and in the data set with Mus musculus [9] was 100 mg/kg in each case. Further, the result with Mus musculus [3] and in the data set on Mus musculus [4] was inactive.

For the compound `CCC1(c2ccccc2)C(=O)NC(=O)NC1=O` [PHENOBARBITAL], the Time in the data set with Mus musculus [10] came out at 1 h. Also, the ED50 with Mus musculus [11] was 21.8 mg/kg.

`Cc1ccc(CN2CC/C(=C\c3ccc4c(c3)OCO4)C2=O)cc1`: the MLD in the data set filed under Mus musculus [1] and in the data set listed under Mus musculus [6] was 300 mg/kg throughout. Moreover, the minimal effective dose with Mus musculus [2] and with Mus musculus [9] was 30 mg/kg in each case. Moreover, the outcome in the data set on Mus musculus [3] and in the data set with Mus musculus [4] was inactive. The Time in the data set with Mus musculus [10] was 1 h. Also, the ED50 with Mus musculus [11] was 6.3 mg/kg. Further, the TD50 in data set [12] stood at 167 mg/kg. Moreover, the selectivity ratio in data set [13] turned out to be 26.5.

As for `O=C1/C(=C/c2ccc3c(c2)OCO3)CCN1Cc1cccc(C(F)(F)F)c1`, the MLD in the data set listed under Mus musculus [1] and in the data set filed under Mus musculus [6] was 300 mg/kg each time. Also, the minimal effective dose with Mus musculus [2] and in the data set on Mus musculus [9] was 30 mg/kg each time. Further, the outcome in the data set with Mus musculus [3] and in the data set with Mus musculus [4] was inactive. Further, in the data set with Mus musculus [10], the Time came to 1 h. Besides, the ED50 with Mus musculus [11] worked out at 4.3 mg/kg. The TD50 in data set [12] turned out to be 161 mg/kg. Also, in data set [13], the selectivity ratio was determined as 37.4. Also, the inhibition at 0.5 h, 10 µM at Nav1.1 is 19.5%. In [14], the inhibition turned out to be 99.9%.

For the compound `Cc1ccccc1CN1CC/C(=C\c2ccc3c(c2)OCO3)C1=O`, the MLD in the data set listed under Mus musculus [1] and in the data set listed under Mus musculus [6] was 300 mg/kg each time. The minimal effective dose in the data set with Mus musculus [9] was 30 mg/kg; in the data set with Mus musculus [7], 100 mg/kg. Also, the result in the data set on Mus musculus [3] and in the data set with Mus musculus [8] was inactive.

Turning to `O=C1NCC/C1=C\c1ccc2c(c1)OCO2`, the MLD in the data set listed under Mus musculus [1] and in the data set listed under Mus musculus [6] was 300 mg/kg in each case. The minimal effective dose stood at 30 mg/kg in the data set with Mus musculus [2] and 100 mg/kg in the data set on Mus musculus [9]. Moreover, the outcome with Mus musculus [3] and with Mus musculus [4] was inactive. In addition, the Time with Mus musculus [10] came out at 1 h. For the same compound, the ED50 with Mus musculus [11] turned out to be 17.3 mg/kg. The TD50 in data set [12] turned out to be 179 mg/kg. For the same compound, the selectivity ratio in data set [13] is 10.4.

With `O=C1/C(=C/c2ccc3c(c2)OCO3)CCN1Cc1ccccc1F`, the MLD in the data set filed under Mus musculus [1] and in the data set listed under Mus musculus [6] was 300 mg/kg in each case. The minimal effective dose in the data set with Mus musculus [2] and in the data set with Mus musculus [9] was 30 mg/kg each time. Besides, the outcome in the data set on Mus musculus [3] and with Mus musculus [4] was inactive. In the data set on Mus musculus [10], the Time was 1 h. In addition, the ED50 in the data set with Mus musculus [11] is 5.6 mg/kg. Moreover, the TD50 in [12] came out at 238 mg/kg. Further, the selectivity ratio in [13] came out at 42.6.

In the case of `O=C1NC(=O)C(c2ccccc2)(c2ccccc2)N1` [PHENYTOIN], the MLD in the data set filed under Mus musculus [1] and in the data set listed under Mus musculus [6] was 100 mg/kg in each case. The minimal effective dose in the data set with Mus musculus [2] and in the data set on Mus musculus [9] was 30 mg/kg throughout. The result in the data set on Mus musculus [3] and in the data set with Mus musculus [4] was inactive. The Time in the data set with Mus musculus [10] came out at 2 h.

Take `CC(C)(C)c1ccc(CN2CC/C(=C\c3ccc4c(c3)OCO4)C2=O)cc1`: the MLD in the data set filed under Mus musculus [1] and in the data set listed under Mus musculus [6] was 300 mg/kg each time. In addition, the minimal effective dose in the data set on Mus musculus [2] and in the data set on Mus musculus [9] was 100 mg/kg throughout. Moreover, the outcome with Mus musculus [3] and in the data set with Mus musculus [4] was inactive.
